Experiment [1] has as its target T1, Kras and SOS1 (biotin-tagged human Kras loaded with GDP, His-tagged human SOS1) (Homo sapiens, UniProt P01116, G12D).
T1 construct: made in house; host or cells: E. coli (stated for Kras only)
The experiment can be described thus: Protein-protein interaction inhibition between Kras and SOS1 (KrasGl2D-SOS PPI) using AlphaScreen. It counts as binding. The conditions noted are these: AlphaScreen; biotin-tagged human Kras loaded with GDP, His-tagged human SOS1; read-out: KRAS G12D-SOS PPI IC50. An outline of the steps: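 Kras was produced in E. coli, purified, then loaded with GDP. It was paired via streptavidin acceptor beads with His-SOS1 held on nickel donor beads, and proximity signal at 520-620 nm was read after 680 nm illumination.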
(Bead proximity is the source of the signal in Alpha formats.)

Experiment [2] concerns Human pancreatic cancer cell line AsPC-1. The experiment can be described thus: Measurement of AsPC-1 cell growth inhibition (AsPC-1 CGI). It counts as cell-based. The settings on record: 96 h. An outline of the steps: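 AsPC-1 cells in 15% FBS RPMI-1640 were exposed to test compound for 96 hours at 37° C, with CellTiter-Glo as endpoint.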

Positions of bridges follow the written chain, without caps; N, C: chain ends. Non-standard residues stand in square brackets, D forms with d. Residues, ends and D or L forms follow the SMILES beside them. *: point of attachment. hPhe(3-Cl-4-CF3) = N[C@@H](CCc1ccc(C(F)(F)F)c(Cl)c1)C(=O)O; NMePhe(4-Me) = CN[C@@H](Cc1ccc(C)cc1)C(=O)O; NMeGly(cPent) = CN[C@H](C(=O)O)C1CCCC1; Ala(cPent) = N[C@@H](CC1CCCC1)C(=O)O; NMeCha = CN[C@@H](CC1CCCCC1)C(=O)O; NMehLeu = CN[C@@H](CCC(C)C)C(=O)O; NMeAhp(2) = CCCCC[C@H](NC)C(=O)O; NMeCba = CN[C@@H](CC1CCC1)C(=O)O; NMeChg = CN[C@H](C(=O)O)C1CCCCC1; NMeD = CN[C@@H](CC(=O)O)C(=O)O; NMeL = CN[C@@H](CC(C)C)C(=O)O; NMeNle = CCCC[C@H](NC)C(=O)O; NMeV = CN[C@H](C(=O)O)C(C)C; Morpholide = C1CN(*)CCO1; NMeA = CN[C@@H](C)C(=O)O; Piperidide = C1CCN(*)CC1; Pyrrolidide = C1CCN(*)C1; Ac5c = NC1(C(=O)O)CCCC1; Aze = O=C(O)[C@@H]1CCN1; Ac3c = NC1(C(=O)O)CC1; Sar = CNCC(=O)O

T1 sequence (P01116 1-188 isoform P01116-2 G12D): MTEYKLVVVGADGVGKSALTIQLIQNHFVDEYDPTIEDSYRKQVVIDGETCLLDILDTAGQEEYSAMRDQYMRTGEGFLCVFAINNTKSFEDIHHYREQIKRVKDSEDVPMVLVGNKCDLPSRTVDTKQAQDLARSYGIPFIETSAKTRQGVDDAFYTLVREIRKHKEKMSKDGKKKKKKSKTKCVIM

For orientation: IC50 means the midpoint of a concentration-inhibition curve. Turning to `CC[C@H](C)[C@@H]1NC(=O)[C@H](CC(C)C)N(C)C(=O)C[C@@H](C(=O)N2CCCCC2)N(C)C(=O)[C@H](C2CCCCC2)N(C)C(=O)C2(CCCC2)NC(=O)[C@@H]2CCCN2C(=O)[C@H](CCc2ccc(C(F)(F)F)c(Cl)c2)NC(=O)CN(C)C(=O)[C@H](C(C)C)N(C)C(=O)CN(C)C(=O)CN(C)C1=O` [Compound 1829] ([NMeL]I[Sar][Sar][NMeV][Sar][hPhe(3-Cl-4-CF3)]P[Ac5c][NMeChg][NMeD]-Piperidide; lactam N-11), the IC50 in experiment [1] was 1.5 nM; in experiment [2], 100 to 500 nM.
The corresponding values for `CC[C@H](C)[C@@H]1NC(=O)[C@H](CC(C)C)N(C)C(=O)C[C@@H](C(=O)N2CCCCC2)N(C)C(=O)[C@H](C2CCCCC2)N(C)C(=O)C2(CCCC2)NC(=O)[C@@H]2CCCN2C(=O)[C@H](CCc2ccc(C(F)(F)F)c(Cl)c2)NC(=O)CN(C)C(=O)[C@H](CCC(C)C)N(C)C(=O)CN(C)C(=O)CN(C)C1=O` [Compound 1830] ([NMeL]I[Sar][Sar][NMehLeu][Sar][hPhe(3-Cl-4-CF3)]P[Ac5c][NMeChg][NMeD]-Piperidide; lactam N-11) are 1.6 nM and 100 to 500 nM.
`CCCC[C@H]1C(=O)N(C)CC(=O)N[C@@H](CCc2ccc(C(F)(F)F)c(Cl)c2)C(=O)N2CCC[C@H]2C(=O)NC2(CCCC2)C(=O)N(C)[C@@H](C2CCCCC2)C(=O)N(C)[C@H](C(=O)N2CCCCC2)CC(=O)N(C)[C@@H](CC(C)C)C(=O)N[C@@H]([C@@H](C)CC)C(=O)N(C)CC(=O)N(C)CC(=O)N1C` [Compound 1832] ([NMeL]I[Sar][Sar][NMeNle][Sar][hPhe(3-Cl-4-CF3)]P[Ac5c][NMeChg][NMeD]-Piperidide; lactam N-11): the IC50 in experiment [1] was 1 nM; in experiment [2], 100 to 500 nM.
Taken in the same sequence, the figures for `CC[C@H](C)[C@@H]1NC(=O)[C@H](C2CCCC2)N(C)C(=O)C[C@@H](C(=O)N2CCCCC2)N(C)C(=O)[C@H](C2CCCCC2)N(C)C(=O)C2(CCCC2)NC(=O)[C@@H]2CCCN2C(=O)[C@H](CCc2ccc(C(F)(F)F)c(Cl)c2)NC(=O)CN(C)C(=O)[C@H](CC2CCCCC2)N(C)C(=O)CN(C)C(=O)CN(C)C1=O` [Compound 1835] ([NMeGly(cPent)]I[Sar][Sar][NMeCha][Sar][hPhe(3-Cl-4-CF3)]P[Ac5c][NMeChg][NMeD]-Piperidide; lactam N-11) were 1.1 nM and 50 to 100 nM.
Taken in the same sequence, the figures for `CC(C)C[C@H]1C(=O)N[C@@H](CC2CCCC2)C(=O)N(C)CC(=O)N(C)CC(=O)N(C)[C@@H](CC2CCCCC2)C(=O)N(C)CC(=O)N[C@@H](CCc2ccc(C(F)(F)F)c(Cl)c2)C(=O)N2CCC[C@H]2C(=O)NC2(CCCC2)C(=O)N(C)[C@@H](C2CCCCC2)C(=O)N(C)[C@H](C(=O)N2CCCCC2)CC(=O)N1C` [Compound 1838] ([NMeL][Ala(cPent)][Sar][Sar][NMeCha][Sar][hPhe(3-Cl-4-CF3)]P[Ac5c][NMeChg][NMeD]-Piperidide; lactam N-11) were 2.6 nM and 100 to 500 nM.
The corresponding values for `CC[C@H](C)[C@@H]1NC(=O)[C@H](CC(C)C)N(C)C(=O)C[C@@H](C(=O)N2CCCC2)N(C)C(=O)[C@H](C2CCCC2)N(C)C(=O)C2(CCCC2)NC(=O)[C@@H]2CCCN2C(=O)[C@H](CCc2ccc(C(F)(F)F)c(Cl)c2)NC(=O)CN(C)C(=O)[C@H](Cc2ccc(C)cc2)N(C)C(=O)[C@@H]2CCN2C(=O)[C@H](C)N(C)C1=O` [Compound 1840] ([NMeL]I[NMeA][Aze][NMePhe(4-Me)][Sar][hPhe(3-Cl-4-CF3)]P[Ac5c][NMeGly(cPent)][NMeD]-Pyrrolidide; lactam N-11) are 1.2 nM and 20 to 50 nM.
On to `CC[C@H](C)[C@@H]1NC(=O)[C@H](CC(C)C)N(C)C(=O)C[C@@H](C(=O)N2CCCCC2)N(C)C(=O)[C@H](C2CCCCC2)N(C)C(=O)C2(CC2)NC(=O)[C@@H]2CCCN2C(=O)[C@H](CCc2ccc(C(F)(F)F)c(Cl)c2)NC(=O)CN(C)C(=O)[C@H](CC2CCCCC2)N(C)C(=O)CN(C)C(=O)CN(C)C1=O` [Compound 1845] ([NMeL]I[Sar][Sar][NMeCha][Sar][hPhe(3-Cl-4-CF3)]P[Ac3c][NMeChg][NMeD]-Piperidide; lactam N-11), for which the values for the IC50 in experiment [1] and in experiment [2] were 0.84 nM and 100 to 500 nM, respectively.
The corresponding values for `CCCCC[C@H]1C(=O)N(C)CC(=O)N[C@@H](CCc2ccc(C(F)(F)F)c(Cl)c2)C(=O)N2CCC[C@H]2C(=O)NC2(CCCC2)C(=O)N(C)[C@@H](C2CCCCC2)C(=O)N(C)[C@H](C(=O)N2CCCCC2)CC(=O)N(C)[C@@H](CC(C)C)C(=O)N[C@@H]([C@@H](C)CC)C(=O)N(C)CC(=O)N(C)CC(=O)N1C` [Compound 1846] ([NMeL]I[Sar][Sar][NMeAhp(2)][Sar][hPhe(3-Cl-4-CF3)]P[Ac5c][NMeChg][NMeD]-Piperidide; lactam N-11) are 1.1 nM and 100 to 500 nM.
The corresponding values for `CC[C@H](C)[C@@H]1NC(=O)[C@H](C)N(C)C(=O)C[C@@H](C(=O)N2CCOCC2)N(C)C(=O)[C@H](C2CCCCC2)N(C)C(=O)C2(CCCC2)NC(=O)[C@@H]2CCCN2C(=O)[C@H](CCc2ccc(C(F)(F)F)c(Cl)c2)NC(=O)CN(C)C(=O)[C@H](CC2CCCCC2)N(C)C(=O)CN(C)C(=O)CN(C)C1=O` [Compound 1847] ([NMeA]I[Sar][Sar][NMeCha][Sar][hPhe(3-Cl-4-CF3)]P[Ac5c][NMeChg][NMeD]-Morpholide; lactam N-11) are 0.63 nM and 100 to 500 nM.
As to `CC[C@H](C)[C@@H]1NC(=O)[C@H](CC(C)C)N(C)C(=O)C[C@@H](C(=O)N2CCCCC2)N(C)C(=O)[C@H](C2CCCC2)N(C)C(=O)C2(CCCC2)NC(=O)[C@@H]2CCCN2C(=O)[C@H](CCc2ccc(C(F)(F)F)c(Cl)c2)NC(=O)CN(C)C(=O)[C@H](Cc2ccc(C)cc2)N(C)C(=O)CN(C)C(=O)CN(C)C1=O` [Compound 1850] ([NMeL]I[Sar][Sar][NMePhe(4-Me)][Sar][hPhe(3-Cl-4-CF3)]P[Ac5c][NMeGly(cPent)][NMeD]-Piperidide; lactam N-11), the values for the IC50 in experiment [1] and in experiment [2] were 0.6 nM and 20 to 50 nM, respectively.
Taken in the same sequence, the figures for `CC[C@H](C)[C@@H]1NC(=O)[C@H](CC(C)C)N(C)C(=O)C[C@@H](C(=O)N2CCCCC2)N(C)C(=O)[C@H](CC2CCC2)N(C)C(=O)C2(CCCC2)NC(=O)[C@@H]2CCCN2C(=O)[C@H](CCc2ccc(C(F)(F)F)c(Cl)c2)NC(=O)CN(C)C(=O)[C@H](CC2CCCCC2)N(C)C(=O)[C@@H]2CCN2C(=O)[C@H](C)N(C)C1=O` [Compound 1860] ([NMeL]I[NMeA][Aze][NMeCha][Sar][hPhe(3-Cl-4-CF3)]P[Ac5c][NMeCba][NMeD]-Piperidide; lactam N-11) were 11 nM and 100 to 500 nM.
The corresponding values for `CC[C@H](C)[C@@H]1NC(=O)[C@H](CC(C)C)N(C)C(=O)C[C@@H](C(=O)N(C)C)N(C)C(=O)[C@H](C(C)C)N(C)C(=O)C2(CCCC2)NC(=O)[C@@H]2CCCN2C(=O)[C@H](CCc2ccc(C(F)(F)F)c(Cl)c2)NC(=O)CN(C)C(=O)[C@H](Cc2ccc(C)cc2)N(C)C(=O)CN(C)C(=O)CN(C)C1=O` [Compound 1867] ([NMeL]I[Sar][Sar][NMePhe(4-Me)][Sar][hPhe(3-Cl-4-CF3)]P[Ac5c][NMeV][NMeD]-NMe2; lactam N-11) are 0.73 nM and 100 to 500 nM.
